Like-named read-outs stand apart in the source and are kept apart here.
Columns and labels:
[1] = dexamethasone levels after subconjunctival implantation in pig eyes; format: in vivo; settings: pigs, after subconjunctival implantation of the 211,685 psi disc
Procedure: A cylindrical shaped dosage form is made using dexamethasone and the polymer system was prepared as described above. The dosage form measures 7.87 mm in diameter, has a thickness of 1 mm, a weight of 60 mg and a drug loading of 6.5%. […] The dosage form is placed beneath the conjunctiva in the super temporal quadrant of the eyes of five pigs. […]

[2] = longer term subconjunctival implantation of pellets in rabbit ocular tissues (HPLC tissue levels, histology); format: in vivo; settings: other: subconjunctival implantation of a pellet, 13 weeks after implantation in right eye, 301,568 psi pellet
Procedure: A study was performed to assess the effects of longer term implantation of cylindrical pellets compressed at 301,568 psi, measuring 5 mm length×3 mm diameter, in rabbit ocular tissues. A new 3-mm diameter mold (prepared and adapted to fit/interchange with the supporting hardware of the 7.87 mm diameter mold) was utilized to prepare the smaller pellets required for the rabbit eye. Due to dimensional considerations and the need to reconcile with the pressure applied for preparing the pellets and the mechanical tolerance of the mold, the incremental pressurization approach, described above was utilized, an initial pressure of 1000 lb was applied; thereafter, ˜500 lb of additional pressure was applied approximately every 5 minutes until it reached about 300,000 psi range. The height of the pellets (cylinders) produced were about 5 mm. The pressure noted was 301,568 psi. Similar to the pig model as described above, the pellets were implanted beneath the conjunctiva in the superotemporal quadrant of the right eyes. At stipulated time-points, the rabbits were euthanized to harvest the ocular tissues. Accordingly, the implant sites were dissected out and the rest of the tissues were further separated into: sclera/conjunctiva, cornea and lens. FIG. 7 depicts the histology (cryosectioned, H&E stained) of an implant site 9 weeks post-op.
The dexamethasone levels in rabbit ocular tissue is determined after 13 weeks and is reported in nanograms of dexamethasone per mg of tissue in Table 1. The sclera/conjunctiva, cornea and lens are recovered, processed, and extracted. Dexamethasone levels are determined by HPLC assay. Table 1 reports the dexamethasone recovered from the rabbit ocular tissues after 13 weeks of implantation, which is the longest duration for this study series.

dexamethasone in plasma [1]: no detectable dexamethasone | concentration at 13 weeks ([2]; left lens (eye without implant), read-out: dexamethasone level in Left Lens): 18300 ng/g | concentration at 13 weeks ([2]; left sclera/conjunctiva (eye without implant), read-out: dexamethasone level in Left Sclera/Conjunctiva): 20300 ng/g | concentration at 13 weeks ([2]; right cornea (implanted eye), read-out: dexamethasone level in Right Cornea): 40400 ng/g | concentration at 13 weeks ([2]; right lens (implanted eye), read-out: dexamethasone level in Right Lens): 78100 ng/g | concentration at 13 weeks ([2]; right sclera/conjunctiva (implanted eye), read-out: dexamethasone level in Right Sclera/Conjunctiva): 415000 ng/g
Compound: C[C@@H]1C[C@H]2[C@@H]3CCC4=CC(=O)C=C[C@]4(C)[C@@]3(F)[C@@H](O)C[C@]2(C)[C@@]1(O)C(=O)CO [dexamethasone]

Source: US8071119B2, “Controlled release implantable dispensing device and method” (Sustained Nano Systems LLC, priority 2007, dated 2011)
